Data: patent US12600732B2, “Bifunctional compounds for degrading BTK via ubiquitin proteosome pathway” (NURIX THERAPEUTICS, INC., priority 2019, dated 2026)
Where two headings read alike, the source gives them in different places. One block for each compound: values may come before it.

Tests used:
BTK [1] = target: T1, BTK (Mus musculus, UniProt P35991); assay: In vivo degradation of BTK in mouse PD experiments with oral dosing; settings: flow cytometry
T1 construct: from tissue; host or cells: mouse blood B cells / splenocytes (CD-1 or BALB/c)
Procedure, shortened: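 BTK in blood or splenocytes read by flow cytometry (or HTRF), degradation taken as B-cell minus T-cell BTK MFI versus vehicle. Mice (CD-1 or BALB/c) received compound orally, initially 90 mg/kg for 6 h, then lower doses and longer time points.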

BTK [2] = target: T2, BTK (Homo sapiens, UniProt Q06187); assay: Cellular BTK degradation assay (Total BTK HTRF) in TMD8 cells; format: cell-based; parameters: endogenous in cells; host or cells: TMD8
Protocol: Cellular BTK Degradation Assay
In Vitro Cellular Screening to Determine Potency as Measured by DC50 Values after Four Hour Incubation
(§1) BTK levels were determined using Cisbio Total-BTK HTRF (Homologous Time-Resolved Fluorescence) kit (63ADK064PEG) according to the manufacturer's protocol. Briefly, cells were incubated in 1× supplied lysis buffer for 30 minutes. In an opaque white low volume 96-well plate (Cisbio, 66PL96005), cell lysate was combined with two different specific BTK antibodies, one conjugated with Eu^3+-Cryptate FRET donor and one conjugated with d2 FRET acceptor. Assay controls include wells containing cell lysate with only the Eu^3+-Cryptate FRET donor antibody and wells containing both HTRF antibodies and lysis buffer without cells or control lysate provided by Cisbio. HTRF ratio was calculated as (acceptor signal at 665 nm/donor signal at 620 nm)×10^4. Background HTRF levels were determined from the control well containing the donor, but no acceptor, antibody. Background HTRF levels were subtracted from all samples. Readouts were reported as HTRF levels relative to HTRF levels of DMSO-treated cells. Four-parameter non-linear regressions were performed in GraphPad Prism 7.02 to obtain DC50 values.
Cellular BTK degradation was measured as above for four hours in TMD8 cells for two diastereomers of compound 130. DC50 and EC50 values are the concentration at which the response is halfway between the top and bottom of the fitted non-linear regression curve.
The present example evaluates whether potency of BTK CTMs shifts with longer timepoints. DC50 values are typically calculated with a 4-hour timepoint.

TMD8 cells [3] = assay: Cell viability assay (CellTiter-Glo), TMD8 cells; settings: for EC50: Homo sapiens, TMD8, 72 h; for EMAX (% viable cells): TMD8 cells, treatment time 72 h
Protocol: (§7) Cell viability was determined using CellTiter-Glo 2.0 Luminescent Cell Viability Assay (Promega, G9242), which quantitates the amount of ATP present as a proxy for the number of viable cells in culture. Cells were plated with densities between 2000-4000 cells per well in 96-well plates. […] CellTiter-Glo reagent was added to cells at a dilution of 1:20, and the plate was incubated ten minutes at room temperature prior to reading the luminescence signal using an EnVision plate reader. Controls included cells treated with DMSO and wells that contained no cells, only media. Background luminescence signal was determined by control wells containing no cells, only media, and was then subtracted from all sample wells. Luminescence values were then normalized to DMSO-treated wells and reported at proportion viable cells.
(§8) Here, the ability of CTMs to affect viability in BTK-dependent cell lines was assessed.

TMD8 C481S cells [4] = assay: Cell viability assay (CellTiter-Glo), TMD8 C481S cells; settings: for EC50: Homo sapiens, TMD8, 72 h; for EMAX (% viable cells): TMD8 C481S cells, treatment time 72 h
BTK C481S = BTK C481S (Homo sapiens, UniProt Q06187, C481S); assay: BTK degradation (Total BTK HTRF) in TMD8 cells expressing BTK-C481S; format: cell-based; parameters: endogenous in cells; host or cells: TMD8 BTK-C481S (clone2C3), Cas9 RNP knock-in; settings: TMD8 BTK-C481S (clone2C3) cells, treatment time 4 h
Protocol: as §1
BTK Degradation (Total BTK HTRF) at Four Hours in TMD8 Cells Expressing BTK-C481S
This example evaluates the potency of CTM in degrading […]. The BTK binding moieties utilized in CTMs bind to the BTK active site. This example evaluates whether the active site mutation C481S affects CTM-induced degradation of BTK.

TMD8 cells [5] = settings: human, 72 h
Protocol: as §7, §8

TMD8 C481S cells [6] = settings: human, 72 h
[7] = test system: B cell receptor (BCR) signaling; assay: B cell activation assay (flow cytometry), mouse B cells; format: cell-based; settings: treatment 4 h, IgM stimulation 18 h
Protocol: (§2) Compound was present throughout the stimulation. Cells were stained with Live/Dead dye (Fisher L34976) and then fluorophore-conjugated antibodies against CD20 (Biolegend 302330), CD3 (BD Pharmingen 557705), CD86 (Biolegend 305416) and CD69 (Biolegend 310906). Stained cells were fixed in PFA and run on an Attune N×T Acoustic Focusing Flow Cytometer (Thermo-Fisher A29004), and data was analyzed using FlowJo (v10.5.3) and GraphPad Prism (v7.00) software. Single live lymphocytes were gated for B cells (CD20+CD3−) and T cells (CD3+CD20−), and the geometric mean fluorescence intensity (MFI) of CD86 and CD69 was calculated for each population. The MFI of the unstimulated sample was used to quantify baseline activation.
(§3) This example evaluates whether CTM treatment affects B cell receptor (BCR) signaling. BTK is activated downstream of the B cell receptor and leads to upregulation of activation markers CD86 and CD69 on the surface of B cells.

[8] = test system: B cell receptor (BCR) signaling; assay: B cell activation assay (flow cytometry), human B cells; format: cell-based; settings: treatment 4 h, IgM stimulation 18 h
Protocol: as §2, §3

Mino cells = assay: Cell viability assay (CellTiter-Glo), Mino cells; format: cell-based; settings: Mino cells, treatment time 72 h
Source text: (§4) This example evaluates effects of CTM-mediated degradation on cell viability. […] Mino and Rec-1 are models of Mantle Cell Lymphoma, which is sensitive to IMiDs.

Rec-1 cells = assay: Cell viability assay (CellTiter-Glo), Rec-1 cells; format: cell-based
Source text: as §4

primary human T cells [9] = assay: T cell activation assay, IL-2 secretion (ELISA); format: cell-based
Procedure, shortened: (§5)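 Primary human T cells stimulated via TCR with anti-CD3/anti-CD28 in the presence of test compound. IL-2 secretion measured by ELISA; surface CD25 and CD69 by flow cytometry. Values are fold-change versus anti-CD3/anti-CD28 stimulation without compound.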

primary human T cells [10] = assay: T cell activation assay, CD25 and CD69 staining (flow cytometry); format: cell-based; settings: fold-change of response relative to baseline
Procedure, shortened: as §5

TMD8 tumor cells = assay: TMD8 xenograft efficacy study (wild-type BTK); format: in vivo, mouse; settings: TMD8 WT, PO, 30 mg/kg, QD, 21 days of dosing
Protocol: […] Tumor growth inhibition (% TGI) were calculated on the final day of measurement using the equation [1−(T−T0/C−T0)]×100, where T and C represent the mean size of tumors in the treated (T) and control (C) groups, and T0 refers to the tumor size at randomization.
(§6) This example examines the activity of various BTK CTMs in relevant disease models, including the WT and C481S TMD8 model, which models B cell malignancies with/without inhibitor-driven BTK mutations at C481.

[11] = PK data for BTK CTMs (in vivo plasma concentrations); settings: for Vd: read-out: Volume of Distribution
Source text: The present example evaluates in vivo plasma concentrations of BTK CTMs to develop PK-PD-efficacy relationship and predict human exposure.

BTK [12] = target: T2, BTK; assay: BTK remaining in TMD8 WT mouse xenograft study; format: in vivo; parameters: from tissue; host or cells: TMD8 xenograft in CB.17 SCID mice; settings: PO, 30 mg/kg, QD, 21 days of dosing
Source text: Efficacy in Mouse Xenograft Models
as §6

[13] = oral dose 3 mg/kg, 24 h, splenocytes
[14] = oral dose 10 mg/kg, 24 h, blood
[15] = oral dose 10 mg/kg, 24 h, splenocytes
[16] = oral dose 30 mg/kg, 24 h, blood
[17] = Rat Sprague-Dawley, 10 mg/kg PO

% BTK Remaining (BTK [1]; oral dose 3 mg/kg, 24 h, blood): 40%
% BTK Remaining (BTK [1]; [13]): 39%
% BTK Remaining (BTK [1]; [14]): 25%
% BTK Remaining (BTK [1]; [15]): 23%
DC50 (BTK [2]; treatment time 4 h): 0.26 nM
SMILES: CN1CCN([C@@H]2CCCN(c3cnc(C(N)=O)c(Nc4ccc(C5CCN(CC6CCN(c7ccc(C(=O)N[C@H]8CCC(=O)NC8=O)nc7)CC6)CC5)cc4)n3)C2)C1=O [Compound 195]

% BTK Remaining (BTK [1]; [16]): 24%
DC50 (BTK [2]; treatment time 24 h): 0.68 nM
DC50 (BTK C481S): 9.7 nM
SMILES: NC(=O)c1ncc(-c2nccs2)nc1Nc1ccc(C2CCN(C[C@@H]3CCN(c4ccc5c(c4)C(=O)N(C4CCC(=O)NC4=O)C5=O)C3)CC2)cc1 (stereo partly shown) [Compound 148]
EC50 (TMD8 cells [3]): 3.27 nM
EMAX (% viable cells) (TMD8 cells [3]): 2%
EC50 (TMD8 C481S cells [4]): 9.18 nM
EMAX (% viable cells) (TMD8 C481S cells [4]): 4%

EC50 ([7]; read-out: CD69 EC50): 0.1 nM
EC50 ([7]; read-out: CD86 EC50): 0.2 nM
% BTK Remaining (BTK [1]; oral dose 3 mg/kg, 6 h, blood): 26%
% BTK Remaining (BTK [1]; oral dose 3 mg/kg, 24 h, blood): 51%
AUC ([11]; Mouse Balb/c, 1 mg/kg IV): 1.77 µM·h
clearance ([11]; Mouse Balb/c, 1 mg/kg IV): 12 mL/min/kg
Vd ([11]; Mouse Balb/c, 1 mg/kg IV): 1.2 L/kg
AUC ([11]; Mouse Balb/c, 30 mg/kg PO): 1.79 µM·h
bioavailability ([11]; Mouse Balb/c, 30 mg/kg PO): 5%
AUC ([11]; Rat Sprague-Dawley, 1 mg/kg IV): 0.59 µM·h
clearance ([11]; Rat Sprague-Dawley, 1 mg/kg IV): 36.3 mL/min/kg
Vd ([11]; Rat Sprague-Dawley, 1 mg/kg IV): 4.6 L/kg
AUC [11, 17]: 0.027 µM·h
bioavailability [11, 17]: 1%
BTK Remaining (% relative to vehicle) (BTK [12]): 16%
DC50 (BTK C481S): 2.7 nM
SMILES: CN1CCN([C@@H]2CCCN(c3cnc(C(N)=O)c(Nc4ccc(C5CN(C6CCN(c7ccc8c(c7)C(=O)N(C7CCC(=O)NC7=O)C8=O)CC6)C5)cc4)n3)C2)C1=O (stereo partly shown) [Compound 37]
IL-2 Secretion Anti-CD3/Anti-CD28 Stimulation (primary human T cells [9]; 1.4 nM, fold-change of response relative to baseline): 1.16
IL-2 Secretion Anti-CD3/Anti-CD28 Stimulation (primary human T cells [9]; 37 nM, fold-change of response relative to baseline): 2.06
IL-2 Secretion Anti-CD3/Anti-CD28 Stimulation (primary human T cells [9]; 333 nM, fold-change of response relative to baseline (stimulation without compound)): 1.64
CD25 Staining Anti-CD3/Anti-CD28 Stimulation (primary human T cells [10]; 1.4 nM): 1.11
CD69 Staining Anti-CD3/Anti-CD28 Stimulation (primary human T cells [10]; 1.4 nM): 1.08
CD25 Staining Anti-CD3/Anti-CD28 Stimulation (primary human T cells [10]; 37 nM): 0.79
CD69 Staining Anti-CD3/Anti-CD28 Stimulation (primary human T cells [10]; 37 nM): 0.77
CD25 Staining Anti-CD3/Anti-CD28 Stimulation (primary human T cells [10]; 333 nM): 0.43
CD69 Staining Anti-CD3/Anti-CD28 Stimulation (primary human T cells [10]; 333 nM): 0.45
Tumor Growth Inhibition (relative to vehicle) (TMD8 tumor cells): 41%
EC50 (TMD8 cells [3]): 21.1 nM
EMAX (% viable cells) (TMD8 cells [3]): 10%
EC50 (TMD8 C481S cells [4]): 51.7 nM
EMAX (% viable cells) (TMD8 C481S cells [4]): 16%

The remaining lines, values behind:

SMILES: NC(=O)[C@H]1CCN(c2ncnc(N)c2F)C[C@@H]1N1CCC[C@@H](Nc2cc(Cl)cc(C(F)(F)F)c2)C1=O [Vecabrutinib]
EMAX (% viable cells) (TMD8 cells [5]): 38%
EMAX (% viable cells) (TMD8 C481S cells [6]): 51%
EC50 (TMD8 cells [3]): 256 nM
EC50 (TMD8 C481S cells [4]): 530 nM

SMILES: CC#CC(=O)N1CCC[C@H]1c1nc(-c2ccc(C(=O)Nc3ccccn3)cc2)c2c(N)nccn12 [Acalabrutinib, acalabrutinib, reference compound]
EC50 ([7]; read-out: CD69 EC50): 1 nM
EC50 ([7]; read-out: CD86 EC50): 3 nM
EC50 ([8]; read-out: CD69 EC50): 2 nM
EC50 ([8]; read-out: CD86 EC50): 3 nM
EC50 (Mino cells; Homo sapiens): 1240 nM
EMAX (% viable cells) (Mino cells): 84%
EC50 (Rec-1 cells; Homo sapiens, Rec1, treatment time 72 h): 582 nM
EMAX (% viable cells) (Rec-1 cells; treatment time 72 h): 76%
EC50 (TMD8 cells [3]): 12 nM
EMAX (% viable cells) (TMD8 cells [3]): 35%
EC50 (TMD8 C481S cells [4]): > 2000 nM
EMAX (% viable cells) (TMD8 C481S cells [4]): 96%

SMILES: CN1CCN([C@@H]2CCCN(c3cnc(C(N)=O)c(Nc4ccc(C5(C)CCN(CCCCc6cccc7c6CN(C6CCC(=O)NC6=O)C7=O)CC5)cc4)n3)C2)C1=O (stereo partly shown) [Compound 21]
EMAX (% viable cells) (TMD8 cells [5]): 19%
EC50 (TMD8 cells [3]): 1.6 nM

SMILES: CN1CCN([C@@H]2CCCN(c3cnc(C(N)=O)c(Nc4ccc(C5CCN(CC6CCN(c7ccc(C(=O)N[C@@H]8CCC(=O)NC8=O)nc7)CC6)CC5)cc4)n3)C2)C1=O [Compound 194]
% BTK Remaining (BTK [1]; oral dose 3 mg/kg, 24 h, blood): 90%
% BTK Remaining (BTK [1]; [13]): 95%
% BTK Remaining (BTK [1]; [14]): 63%
% BTK Remaining (BTK [1]; [15]): 57%
DC50 (BTK [2]; treatment time 4 h): 4.3 nM

SMILES: NC(=O)c1ncc(-c2nccs2)nc1Nc1ccc(N2CCC3(CCN(Cc4ccc5c(c4)C(=O)N(C4CCC(=O)NC4=O)C5=O)CC3)CC2)cc1 (stereo not shown) [Compound 150]
% BTK Remaining (BTK [1]; [16]): 25%
DC50 (BTK [2]; treatment time 24 h): 4.7 nM
